The values that follow are results of earlier work, collected in article PMC4838521 (ChemMedChem, 2015).

The data set addresses YopH-NT (Yersinia pestis, UniProt O68720). The following applies: read-out: Kd for YopH-NT.

YopH-NT, sequence (O68720 1-129 limits assumed): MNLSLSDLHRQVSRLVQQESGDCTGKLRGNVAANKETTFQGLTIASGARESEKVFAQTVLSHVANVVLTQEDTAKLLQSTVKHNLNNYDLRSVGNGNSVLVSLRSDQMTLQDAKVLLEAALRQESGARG

Consider cyclo-DE(pY)DDPfK, for which the Kd (usually the constant that tells how readily two partners part at equilibrium) is around 15 µM.
For the substance cyclo-DE(pY)LDPfK, the Kd is around 23 µM.
